Experimental data as given in patent publication US20080038198A1, “Method Of Screening Molecule Associated With Psychiatric Disorder” (MITSUBISHI PHARMA CORPORATION, priority 2004, published 2008).
Entries after “also recorded” stand apart in the source; their conditions may differ.

Assays:
Type in all cases: in vivo, Caenorhabditis elegans
nematodes [1] = assay: behavioral sensitization analysis: MAP pretreatment, washout on E. coli lawn, then drug challenge and body bend count
Method: MAP hydrochloride was dissolved in sterilized pure water at a 100-fold concentration, and 50 μL of the solution was applied to a 35-mm NGM plate (5 mL). As a control group, sterilized water used as a solvent was similarly applied to prepare an assay plate. Apomorphine (hereinafter also abbreviated as “APO”) dissolved in 0.1% aqueous ascorbic acid as a solvent was applied as a solution of 100-fold concentration in a similar manner to prepare an assay plate. For a control group, 0.1% aqueous ascorbic acid was used. The periphery of each assay plate was applied with a 3.5 mol/L sucrose solution to prevent nematodes from invading the back of the plate. Adult-stage nematodes bred on the E. coli lawn were washed with S-basal buffer (Genetics, 77, pp. 71-94, 1974), then transferred to each of the aforementioned assay plates, and left at room temperature with light shielding for one hour in the MAP treatment or 30 minutes in the APO treatment, and the number of body bends over 20 seconds was counted under a stereoscopic microscope. In the behavioral sensitization analysis, nematodes treated on the MAP-containing NGM plate for one hour were returned to the E. coli lawn, bred at 20° C. for a predetermined time and then treated with various drugs, and their behavior was observed.

nematodes [2] = assay: imipramine treatment: number of eggs laid during 90 minutes
Method: Nematodes washed with S-basal buffer were transferred onto a 35-mm assay plate prepared by applying imipramine (hereinafter abbreviated as “IMI”) in the same manner as that used for MAP, and the number of eggs laid during 90 minutes was counted. Five nematodes were transferred to each plate, and the count was obtained for each plate.

nematodes [3] = assay: slowing response: number of body bends over 20 seconds on drug-containing assay plate; details: acute treatment on plate containing no feed
Method: Nematodes were bred on a lawn of E. coli OP50 coated on a 60-mm NGM plate (Genetics, 77, pp. 71-94, 1974) in an incubator at 20° C.
MAP hydrochloride was dissolved in sterilized pure water at a 100-fold concentration, and 50 μL of the solution was applied to a 35-mm NGM plate (5 mL). As a control group, sterilized water used as a solvent was similarly applied to prepare an assay plate. Apomorphine (hereinafter also abbreviated as “APO”) dissolved in 0.1% aqueous ascorbic acid as a solvent was applied as a solution of 100-fold concentration in a similar manner to prepare an assay plate. For a control group, 0.1% aqueous ascorbic acid was used. The periphery of each assay plate was applied with a 3.5 mol/L sucrose solution to prevent nematodes from invading the back of the plate. Adult-stage nematodes bred on the E. coli lawn were washed with S-basal buffer (Genetics, 77, pp. 71-94, 1974), then transferred to each of the aforementioned assay plates, and left at room temperature with light shielding for one hour in the MAP treatment or 30 minutes in the APO treatment, and the number of body bends over 20 seconds was counted under a stereoscopic microscope. […]

nematodes [4] = assay: screening for chemical substance inhibiting establishment of MAP-induced behavioral sensitization; details: ondansetron 1 or 10 μM with 300 μM MAP and overnight; MAP challenge next day
Method: In an incubator inside of which was maintained at 20° C., nematodes were bred on an Escherichia coli lawn prepared by applying the E. coli OP50 strain on a 60-mm NGM plate (Genetics, 77, pp. 71-94, 1974).
MAP hydrochloride was dissolved in pure water to prepare a 30 mM solution, and 50 μL of the solution was applied to a 35-mm NGM plate (5 mL) to prepare a 300 μM MAP plate. This MAP plate was further applied with 50 μL of an ondansetron solution (0.1 or 1 mM) dissolved in 100 mM NaCl or 0.1 N hydrochloric acid and adjusted to neutral pH by using NaOH to complete an assay plate. Nematodes (adults) bred on the Escherichia coli lawn were washed with S-basal buffer (Genetics, 77, pp. 71-94, 1974) for a short period of time, and then incubated on each of the aforementioned assay plates at 20° C. for one hour with light shielding. For this procedure, the periphery of each assay plate was applied with a 3.5 M sucrose solution to prevent nematodes from invading the back of the assay plate. […] On the following day, the nematodes were washed with S-basal buffer for a short period of time and transferred onto a MAP challenge plate prepared by applying 50 μL of a 10 μM MAP solution on a 35-mm NGM plate (5 mL), and the number of body bends over 20 seconds was counted under a stereoscopic microscope.

With `CN[C@@H](C)Cc1ccccc1` [MAP, methamphetamine] the “susceptibility to MAP-induced slowing response (establishment of behavioral sensitization)” value (nematodes [1]; 300 μmol/L MAP experienced on the previous day, MAP challenge next day) was “increased susceptibility to a treatment with MAP was observed; also recorded: the susceptibility was increased”, the “dependence of establishment of behavioral sensitization on MAP pretreatment concentration” value (nematodes [1]; MAP pretreatment on previous day at various concentrations) was “dependent on the MAP concentration used for pretreatment; also recorded: dependent on the concentration of MAP experienced on the previous day” and the “APO-induced slowing response after MAP pretreatment (cross of behavioral sensitization)” value (nematodes [1]; MAP pretreatment, APO challenge) was “increased susceptibility to APO and induced slowing responses even at a low concentration; also recorded: enhanced by an MAP pretreatment”. For the same compound, the “duration of MAP-induced behavioral sensitization” value (nematodes [1]; MAP washout period from pretreatment to challenge) was “at least 2 days”, the “influence of MAP pretreatment on IMI-induced egg-laying behavior” value (nematodes [2]; MAP treatment on the previous day, IMI challenge) was “had no effect on IMI-induced egg-laying behavior; also recorded: had no influence on the egg-laying behavior promoted by IMI” and the “locomotion (slowing response)” value (nematodes [3]) was “inhibited locomotion of nematodes in a concentration-dependent manner; also recorded: inhibited the locomotion in a concentration-dependent manner”.
With `CN(C)CCCN1c2ccccc2CCc2ccccc21` [IMI, imipramine] the egg laying behavior (nematodes [2]; IMI applied on NGM plate, eggs laid during 90 minutes) was “increased egg laying behavior in a concentration-dependent manner; also recorded: promoted egg laying in a concentration-dependent manner”.
For `Cc1nccn1CC1CCc2c(c3ccccc3n2C)C1=O` (stereo not drawn) [ondansetron], the “establishment of MAP-induced behavioral sensitization” value (nematodes [4]) was “inhibition of establishment of MAP-induced behavioral sensitization; also recorded: exhibits an antagonistic action on the establishment of MAP-induced behavioral sensitization”.
With `CN1CCc2cccc3c2[C@H]1Cc1ccc(O)c(O)c1-3` [APO, Apomorphine] the “locomotion (slowing response)” value (nematodes [3]) was “induced slowing responses in a concentration-dependent manner; also recorded: inhibited the locomotion in a concentration-dependent manner”.
